The results in this text go back to PMC8507746, “The FHP01 DDX3X Helicase Inhibitor Exerts Potent Anti-Tumor Activity In Vivo in Breast Cancer Pre-Clinical Models” (Cancers, 2021).

One series relates to MDA MB 231 cells. Kind of series: Cell viability / cytotoxicity assay (cell counting). It counts as cell-based. The note with it: Homo sapiens. As for the experimental part:
(§1) Cells were seeded at 3–5 × 10^4 cells/well density (depending on cell lines) in 12-well plates, in triplicate, and maintained at 37 °C in 5% CO2. After 24 h, cells were treated with different concentrations of indicated drugs in a range from 0 to 100 μM (0, 0.1, 1, 10, 50, 100 μM). […] Cell number of each sample was determined with Z2 Coulter Counter (Beckman Coulter, Brea, CA, USA), in triplicate. Data about cell viability were plotted in GraphPad Prism 8.0 software (GraphPad Software, San Diego, CA, USA) to draw dose-response curve and to calculate IC50.

For another series, the system named is MDA MB 468 cells. The series is described as above. It counts as cell-based. Conditions: Homo sapiens. As for the experimental part:
as §1

Test in series [1]: as above
It counts as cell-based. The note with it: human, MCF10A control cells. How it is done: (§2) Cells were seeded at 3–5 × 10^4 cells/well density (depending on cell lines) in 12-well plates, in triplicate, and maintained at 37 °C in 5% CO2. After 24 h, cells were treated with different concentrations of indicated drugs in a range from 0 to 100 μM (0, 0.1, 1, 10, 50, 100 μM). After 72 h incubation, cells were washed in PBS and harvested. Cell number of each sample was determined with Z2 Coulter Counter (Beckman Coulter, Brea, CA, USA), in triplicate. Data about cell viability were plotted in GraphPad Prism 8.0 software (GraphPad Software, San Diego, CA, USA) to draw dose-response curve and to calculate IC50.

In another series the test system is MCF7 cells. Described as above. It counts as cell-based. The note with it: Homo sapiens, MCF7, 72 h. As for the experimental part: as §2
The next series deals with SKBR3 cells. The series is described as above. It counts as cell-based. The note with it: Homo sapiens, SK-BR-3; SKBR3, 72 h. How it is done: as §2
The test system of another series is T47D cells. The description is as above. It counts as cell-based. The note with it: Homo sapiens, 72 h. As for the experimental part: as §2
The subject of series [2] is MDA MB 231 tumor xenografts. In words: MDA MB 231 tumor xenograft growth in athymic nude mice. It counts as in vivo. Conditions: for mean tumor volume: 45 mg/kg i.p. 3 times a week. How it is done:
(§3) Animal experiments were performed in accordance with current Italian legislation and the animal protocol has been reviewed and approved by Italian Ministero della Salute (authorization n. 886/2020-PR). The study was designed to verify the effect of newly synthetized molecule with DDX3X inhibitor activity administered via i.p at a concentration of 45 mg/kg on the tumor growth of xenograft MDA MB 231 human breast cancer cells. In the study, n refers to the number of tumors expressed on both flanks of the animals. The sample size was calculated by g-power calculator placing a predictable large (2-fold increase) effect size, alpha as 0.05, and a confidence interval of 95% and we set our experimental unit number of 10 (corresponding to 5 animals). Total number of animals used in the study was 10. Six-week-old athymic nude mice were purchased from Charles River Laboratories. Five animals in each cage acclimatized in our animal facilities for 5 days in individually ventilated cages. Animals were fed with the lab diet ad libitum and water was accessible at all times and kept under standard specific pathogen-free conditions of 12 h light/dark cycle. Observational analysis was performed at the beginning of experimental procedure to ensure animal wellbeing (Table S1).
To establish xenograft tumors, MDA MB 231 cells were cultured in media as described above. On the day of experiment, cells (2.8 × 10^6) were suspended in 150 μL PBS 1:1 Matrigel and injected subcutaneously on both size of the flank region of nude mice. In order to determine tumor volume by manual caliper, the greatest longitudinal diameter (length) and the greatest transverse diameter (width) were determined. Tumor volumes based on caliper measurements were calculated by the modified ellipsoidal formula Tumor volume = 1/2(length × width^2).
Group allocation and treatments: once tumors reached a mean size of 24.82 ± 2.56 mm^3, animals were allocated in two groups by minimization strategy according to tumor size: the treatment group received 100 μL of a 45 mg/kg FHP01 suspended in a vehicle consisting of 10% DMSO, 5% Tween 80, 85% H2O via i.p. injection three times per week for 4 weeks; the control group included animals treated with 100 μL of vehicle (10% DMSO, 5% Tween 80, 85% H2O). One control animal reached HEP and was sacrificed and was not account for in the analysis. […]
For the final statistics, the number of tumors analyzed was 8 in the control group (one animal died for unknown reasons as certified by the AWB designed veterinary) and 9 for the treated group (the volume of one tumor was considered outlier). Results were reported as tumor volume increase, normalizing the value of each measurement to the baseline value of each sample and expressed as mean ± SEM. […]

Series [3] in a line: Tolerability in xenograft study: body weight and organ histology. It counts as in vivo, athymic nude mice. How it is done:
as §3, with “S1). […]” for “S1).”

Consider `CCCCc1cn(-c2ccc(NC(=O)Nc3ccccc3C(F)(F)F)cc2)nn1` [FHP01], for which the IC50 in the series with MDA MB 231 cells (MDA MB 231, 24h) came out at 13.3 µM; in the series on MDA MB 231 cells (MDA MB 231, 48h), 4.14 µM; in the series with MDA MB 231 cells (MDA MB 231, 72 h) it was 3.21 µM; in the series on MDA MB 468 cells (MDA MB 468, 24h), 12.7 µM; with MDA MB 468 cells (MDA MB 468, 48h) it was 3.48 µM; in the series with MDA MB 468 cells (MDA MB 468, 72 h), 3.06 µM. For the same compound, the half-inhibitory concentration (IC50) in the series with MCF7 cells is 12.4 µM; in the series on SKBR3 cells it was 13.5 µM; in the series on T47D cells, 10.6 µM. In series [1], the IC50 at 72 h came to 28.7 µM. The mean tumor volume came to 25.49± 4.58 mm^3 in series [2] (Day 0 of the treatment); 24.18 ± 4.44 mm^3 in series [2] (Day 18, control 73.40 ± 9.72); 37.23 ± 11.45 mm^3 in series [2] (Day 28, control 129.85 ± 21.39). For the same compound, the “effect size, decrease in tumor growth (control/treated)” value in series [2] (end of the procedure, 45 mg/kg i.p.) is “about 4 fold”. Moreover, the animal body weight entry in series [3] (45 mg/kg i.p. 3 times a week, all the treatment period) is on record as “No loss of animal body weight”. The “histology of liver, brain, spleen and kidney” value in series [3] (after 4 weeks of i.p. treatment, 45 mg/kg) is listed as “did not show any sign of toxicity”.
